According to patent US5134073A, “Microbiologically produced N-acetyl-2,3-didehydroleucine acylase” (Degussa Aktiengesellschaft, priority 1989, dated 1992):
“And” between values parts separate entries of the source, which are not always exact repeats. Equal values may be shown once. Read-outs that look alike come from different tables or passages of the source. Where a SMILES comes first, the peptide text is derived from it.

Legend:
[1] = test system: N-acetyldehydroleucine acylase; test: Influence of additive substances on the splitting of N-acetyldehydroleucine under standard conditions; format: biochemical, Zoogloea ramigera
Procedure: The mixing together of the batches, their storage and the taking of specimens took place under sterile conditions. The standard conditions for the enzyme test were:
20 mM N-Acetyldehydroleucine

ADL acylase = test: Stability of the acylase in the presence of different anions; format: physicochemical, Zoogloea ramigera; settings: sodium salt 0.5 M in 50 mM glycine pH 11, 20° to 25° C., raw extract; 500000 µM
Procedure: The influence of different anions on the stability of ADL acylase was investigated. Raw extract which had been compounded with glycerin to 43.5% (w/v) was diluted 1 : 10 with 0.5 molar solutions of various sodium salts in 50 mM glycine (pH 11) and stored at room temperature (20° to 25° C.). Specimens were taken from time-to-time and their enzymatic activity measured under standard conditions, as described in Example 8a).

[2] = test system: N-acetyldehydroleucine acylase; test: Hydrolysis of other compounds by the acylase (TLC / amino acid analyzer); format: biochemical, Zoogloea ramigera; settings: for rel. activity (%): 50 mM test substrate, 0.1 M tris/HCl pH 9, 25° C., hydrolysis rate with N-acetyldehydroleucine = 100%
Procedure: A qualitative check was performed for 81 compounds to see whether they are accepted as substrate by the acylase. The test batches contained:
After 16 and 40 hours incubation at 25° C., specimens were taken from the batches, most of which specimens were analyzed in comparison to substrate standards by means of thin-layer chromatography (70% (v/v) ethanol as mobile solvent). The detection took place with ninhydrin spray reagent. A few specimens were tested in addition or alternatively with the amino acid analyzer.
The amino acids produced from the amino acid amides by means of the action of acylase were detected quantitatively with the amino acid analyzer.

Compound	% Residual activity ([1]; inhibitor 1 mM)	% Residual activity ([1]; inhibitor 10 mM)	rel. activity (%) [2]	also measured
c1ccc(-c2ccccn2)nc1 [Bipyridine]	91%	70%		
CC(=O)O [Acetate]				% Residual activity after 3 days (ADL acylase): 86%; % Residual activity after 6 days (ADL acylase): 81%; % Residual activity after 21 days (ADL acylase): 6%
CC(=O)N[C@@H](C)C(=O)N[C@H](C(=O)O)C(C)C [N-acetyl-L-alanyl-L-valine] (Ac-Ala-Val-OH)			0%	
CC(C)C[C@H](NC(=O)CN)C(=O)O [Glycyl-L-leucine]			0%	
NC(=O)N[C@@H](Cc1ccccc1)C(=O)O [N-carbamoyl-L-phenylalanine]			0%	
[Ca+2].[Cl-].[Cl-] [CaCl2]		93%		
NC(=O)[C@@H](N)Cc1c[nH]c2ccccc12 [tryptophane amide]				Substrate specificity: hydrolysis by the acylase [2]: split with a reaction rate on the order like that achieved with N-acetyldehydroamino acids
O=C(O)CC(O)(CC(=O)O)C(=O)O [Citrate]	99%	84%		
CSCC[C@H](N)C(N)=O [L-methionine amide]			4.69%	Substrate specificity: hydrolysis by the acylase [2]: hydrolyzes
CC(=O)NC(CC(C)C)C(=O)O (racemic) [N-acetyl-D,L-leucine]			0%	
N[C@@H](CCC(=O)N[C@@H](CS)C(=O)NCC(=O)O)C(=O)O [Glutathione reduced]				% Residual activity [1]: 95%
O=C(O)CI [iodine acetate]				% Residual activity [1]: 76% and 49%
[Cl-].[Cl-].[Co+2] [CoCl2]	91%	85%		
O=C(O)CN(CCN(CC(=O)O)CC(=O)O)CC(=O)O [EDTA]				% Residual activity [1]: 95%
N=C(N)c1ccc(N)cc1 [pABA, paraaminobenzamidine]		89%		% Residual activity ([1]; inhibitor 100 mM): 54%; % Residual activity ([1]; inhibitor 200 mM): 0%
COC(=O)NC(C(=O)O)C(C)C (racemic) [N-methoxycarbonyl-D,L-valine]			0%	
O[C@H](CS)[C@H](O)CS (racemic) [Dithiothreitol]	103%	58%		
CC(=O)N[C@H](C(=O)O)C(C)C [N-acetyl valine]				Substrate specificity: hydrolysis by the acylase [2]: not
O=C(O)c1cc[c]([Hg][OH])cc1 [pCMB, parahydroxy mercury benzoate]	104%	98%		

Compound	% Residual activity ([1]; inhibitor 1 mM)	% Residual activity ([1]; inhibitor 10 mM)	rel. activity (%) [2]	also measured
CC(C)C[C@H](N)C(N)=O [L-leucine amide]			6.80%	Substrate specificity: hydrolysis by the acylase [2]: hydrolyzes
CC(C)C[C@H](NC(=O)[C@H](C)N)C(=O)O [L-alanyl-L-leucine] (H-Ala-Leu-OH)			0%	
O=C(O)c1cc[c]([Hg][OH])cc1 [pOHMB, parahydroxy mercuric benzoate]	93%	91%		
Phosphate				% Residual activity after 3 days (ADL acylase): 96%; % Residual activity after 6 days (ADL acylase): 105%; % Residual activity after 21 days (ADL acylase): 27%
CC(=O)N[C@@H](CC(C)C)C(=O)O [N-acetyl leucine]				Substrate specificity: hydrolysis by the acylase [2]: not
CN[C@@H](CCC(=O)O)C(=O)O [N-methyl-L-glutamic acid]			0%	
CC(C)C[C@H](N)C(=O)NCC(=O)O [L-leucyl glycine] (H-Leu-Gly-OH)			0%	
C[C@H](N)C(=O)N[C@@H](Cc1ccccc1)C(N)=O [L-alanyl-L-phenylalanine amide]			0%	
O=S(=O)([O-])[O-].[Cu+2] [CuSO4]	87%	83%		
[Cl-].[Cl-].[Mg+2] [MgCl2]	95%	88%		
CN(C)C(=O)Oc1cccc([N+](C)(C)C)c1 [Neostigmine]	102%	82%		% Residual activity ([1]; inhibitor 100 mM): 0%
COC(=O)NC(CC(C)C)C(=O)O (racemic) [N-methoxycarbonyl-D,L-leucine]			0%	
[Cl][Hg][Cl] [HgCl2]	84%	70%		
CC(=O)NCC(=O)O [N-acetyl glycine]			0%	
NNC(N)=O [Semicarbazide]	113%	93%		
NC(=O)[C@H](N)Cc1c[nH]c2ccccc12 [D-tryptophane amide]				Substrate specificity: hydrolysis by the acylase [2]: hydrolyzes
CC(C)C[C@@H](N)C(N)=O [D-leucine amide]			3.82%	Substrate specificity: hydrolysis by the acylase [2]: hydrolyzes
CC(=O)N[C@@H](Cc1ccccc1)C(=O)O [N-acetyl-L-phenylalanine]			0%	
O=CO [Formate]				% Residual activity after 3 days (ADL acylase): 76%; % Residual activity after 6 days (ADL acylase): 63%; % Residual activity after 21 days (ADL acylase): 2%

Compound	% Residual activity ([1]; inhibitor 1 mM)	% Residual activity ([1]; inhibitor 10 mM)	rel. activity (%) [2]	also measured
CC(C)CC(NC(=O)c1ccccc1)C(=O)O (racemic) [N-benzoyl-D,L-leucine]			0%	
C[C@H](N)C(N)=O [L-alanine amide]			0.35%	
CNC(CC(C)C)C(=O)O (racemic) [N-methyl-D,L-leucine]			0%	
CC(C)[C@H](NC(N)=O)C(=O)O [N-carbamoyl-L-valine]			0%	
NC(=O)[C@@H](N)Cc1c[nH]c2ccccc12 [L-tryptophane amide]			20.4%	Substrate specificity: hydrolysis by the acylase [2]: hydrolyzes
Cl [Chloride]				% Residual activity after 3 days (ADL acylase): 35%; % Residual activity after 6 days (ADL acylase): 0%; % Residual activity after 21 days (ADL acylase): 0%
[Cl-].[Cl-].[Zn+2] [ZnCl2]	95%	82%		
N[C@@H](Cc1c[nH]c2ccccc12)C(=O)NCC(=O)O [L-tryptophyl glycine] (H-Trp-Gly-OH)			0%	
N[C@@H]1CON=C1O [Cycloserine]	111%	105%		
OCCS [MeSH, mercaptoethanol]	93%	99%		% Residual activity ([1]; inhibitor 100 mM): 81%
NC(=O)CI [iodine acetamide]	104%	74%		
O=S(=O)(F)Cc1ccccc1 [PMSF, phenylmethane sulfonyl fluoride]				% Residual activity ([1]; inhibitor 0.0001 mM): 10%; % Residual activity ([1]; inhibitor 0.01 mM): 0%; Inhibition of the acylase ([1]; phenylmethane sulfonyl fluoride still in micromolar concentration): sharply inhibit; Influence of inhibitors on the acylase ([1]; phenylmethane sulfonylfluoride: 0.001 mM): exert an inhibitory action
[N-]=[N+]=[N-].[Na+] [NaN3]	105%	103%		
C[C@H](N)C(=O)NCC(=O)O [L-alanyl glycine] (H-Ala-Gly-OH)			0%	
[Cl][Mn][Cl] [MnCl2]	99%	87%		
C[C@@H](N)C(N)=O [D-alanine amide]			0.46%	
c1cnc2c(c1)ccc1cccnc12 [Phenanthroline]	94%	52%		
O=S(=O)(O)O [Sulfate]				% Residual activity after 3 days (ADL acylase): 89%; % Residual activity after 6 days (ADL acylase): 94%; % Residual activity after 21 days (ADL acylase): 15%
